Laboratory results as given in the supplement of paper PMC5908809.

How the values were obtained:
[1] = tested on: normal NK cells expanded with K562-aAPC; assay: percent inhibition of viability; higher = more inhibition; conditions: 72 h, IL-2 2.5 ng/mL
Description: (§1)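 Drug sensitivity and resistance testing on K562-aAPC-expanded normal NK cells: 5 concentrations (10-fold steps over a 10,000-fold range), 72 h at 37 °C, viability by CellTiter-Glo normalised to DMSO and benzethonium chloride controls; DSS from the fitted curve.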

DERL-7 (IL-2 2.5 ng/mL) [2] = assay: as above; conditions: 72 h
IMC-1 (IL-2 20 ng/mL) [3] = assay: as above; conditions: 72 h
KAI3 (IL-2 2.5 ng/mL) [4] = assay: as above; conditions: 72 h
KHYG-1 (IL-2 2.5 ng/mL) [5] = assay: as above; conditions: 72 h
NK-92 (IL-2 2.5 ng/mL) [6] = assay: as above; conditions: 72 h
NK-YS (IL-2 2.5 ng/mL) [7] = assay: as above; conditions: 72 h
NKL (IL-2 2.5 ng/mL) [8] = assay: as above; conditions: 72 h
SNK-6 (IL-2 2.5 ng/mL) [9] = assay: as above; conditions: 72 h
YT (IL-2 2.5 ng/mL) [10] = assay: as above; conditions: 72 h
[11] = tested on: normal primary NK cells, pool 1 (3 donors) (IL-2 2.5 ng/mL); assay: as above; conditions: 72 h
[12] = tested on: normal primary NK cells, pool 1 (3 donors), resting (IL-2 0 ng/mL); assay: as above; conditions: 72 h
[13] = tested on: normal primary NK cells, pool 2 (3 donors) (IL-2 2.5 ng/mL); assay: as above; conditions: 72 h
[14] = tested on: normal primary NK cells, pool 3 (3 donors) (IL-2 2.5 ng/mL); assay: as above; conditions: 72 h
[15] = tested on: normal NK cells expanded with K562-aAPC; assay: drug sensitivity score (DSS) (DSS units); higher = more sensitive; extreme values may be limits of the assay; conditions: 72 h; IL-2 2.5 ng/mL
Description: as §1

DERL-7 (IL-2 2.5 ng/mL) [16] = assay: as above; conditions: 72 h
IMC-1 (IL-2 20 ng/mL) [17] = assay: as above; conditions: 72 h
KAI3 (IL-2 2.5 ng/mL) [18] = assay: as above; conditions: 72 h
KHYG-1 (IL-2 2.5 ng/mL) [19] = assay: as above; conditions: 72 h
NK-92 (IL-2 2.5 ng/mL) [20] = assay: as above; conditions: 72 h
NK-YS (IL-2 2.5 ng/mL) [21] = assay: as above; conditions: 72 h
NKL (IL-2 2.5 ng/mL) [22] = assay: as above; conditions: 72 h
SNK-6 (IL-2 2.5 ng/mL) [23] = assay: as above; conditions: 72 h
YT (IL-2 2.5 ng/mL) [24] = assay: as above; conditions: 72 h
[25] = tested on: normal primary NK cells, pool 1 (3 donors) (IL-2 2.5 ng/mL); assay: as above; conditions: 72 h
[26] = tested on: normal primary NK cells, pool 1 (3 donors), resting (IL-2 0 ng/mL); assay: as above; conditions: 72 h
[27] = tested on: normal primary NK cells, pool 2 (3 donors) (IL-2 2.5 ng/mL); assay: as above; conditions: 72 h
[28] = tested on: normal primary NK cells, pool 3 (3 donors) (IL-2 2.5 ng/mL); assay: as above; conditions: 72 h

O=C(c1cc(Cc2n[nH]c(=O)c3ccccc23)ccc1F)N1CCN(C(=O)C2CC2)CC1 [Olaparib] (max concentration tested 10000 nM)
percent inhibition of viability [%]
Conditions	1 nM	10 nM	100 nM	1000 nM	10000 nM
DERL-7 (IL-2 2.5 ng/mL) [2]	-1.68	4.77	-8.94	1.1	31.5
IMC-1 (IL-2 20 ng/mL) [3]	2.29	1.77	7.69	13.7	53.5
KAI3 (IL-2 2.5 ng/mL) [4]	0.33	3.77	9.9	28.6	72.2
KHYG-1 (IL-2 2.5 ng/mL) [5]	-5.18	-5.25	0.38	10.5	72.6
NK-92 (IL-2 2.5 ng/mL) [6]	4.94	9.54	8.93	21.5	79.2
NK-YS (IL-2 2.5 ng/mL) [7]	-6.43	-6.57	3.49	20.7	90.7
NKL (IL-2 2.5 ng/mL) [8]	0.33	9.8	27.9	57.2	80.5
SNK-6 (IL-2 2.5 ng/mL) [9]	1.96	-1.75	-10.2	19.4	89.5
YT (IL-2 2.5 ng/mL) [10]	4.35	1.35	5.37	3.91	22.8
[1]	5.19	4.79	5.47	7.88	39.6
[11]	3.22	7.12	-3.15	3.31	8.24
[12]	-10.9	1.92	-9.9	-1.32	15.6
[13]	-7.93	-9.67	-11	2.31	15.4
[14]	-7.91	-1.82	-4.22	3.8	13.5

Conditions	drug sensitivity score
DERL-7 (IL-2 2.5 ng/mL) [16]	1.54
IMC-1 (IL-2 20 ng/mL) [17]	4.75
KAI3 (IL-2 2.5 ng/mL) [18]	7.15
KHYG-1 (IL-2 2.5 ng/mL) [19]	5.78
NK-92 (IL-2 2.5 ng/mL) [20]	7.35
NK-YS (IL-2 2.5 ng/mL) [21]	8.28
NKL (IL-2 2.5 ng/mL) [22]	14.5
SNK-6 (IL-2 2.5 ng/mL) [23]	8.04
YT (IL-2 2.5 ng/mL) [24]	1.37
[15]	3.25
[25]	0
[26]	0.22
[27]	0.48
[28]	0.4

COc1cc2c(Oc3ccc(NC(=O)C4(C(=O)Nc5ccc(F)cc5)CC4)cc3F)ccnc2cc1OCCCN1CCOCC1 [Foretinib] (max concentration tested 1000 nM)
percent inhibition of viability [%]
Conditions	0.1 nM	1 nM	10 nM	100 nM	1000 nM
DERL-7 (IL-2 2.5 ng/mL) [2]	3.24	-0.68	2.22	-8.07	70.8
IMC-1 (IL-2 20 ng/mL) [3]	-6.29	-10.2	-1.31	3.45	27.1
KAI3 (IL-2 2.5 ng/mL) [4]	3.99	-0.1	0.67	11.6	31.7
KHYG-1 (IL-2 2.5 ng/mL) [5]	1.36	-8.14	-3.69	18.4	49.9
NK-92 (IL-2 2.5 ng/mL) [6]	-17.3	-12.3	-5.79	19.9	34.9
NK-YS (IL-2 2.5 ng/mL) [7]	-1.72	-7.82	-1.95	11.5	70.2
NKL (IL-2 2.5 ng/mL) [8]	-12.1	-16.5	-5.45	16.3	49.9
SNK-6 (IL-2 2.5 ng/mL) [9]	-1.08	-15.3	-7.01	-4.86	49.9
YT (IL-2 2.5 ng/mL) [10]	-1.93	-8.62	-2.43	13.9	37.3
[1]	-5.4	-5.19	-3.74	12.6	61
[11]	3.18	-0.67	9.57	11.1	15.9
[12]	-4.45	1.67	17.2	10.1	18.4
[13]	-11.2	-4.47	3.97	-2.36	-2.41
[14]	-8.78	-7.33	8.91	6.17	10.7

Conditions	drug sensitivity score
DERL-7 (IL-2 2.5 ng/mL) [16]	3.35
IMC-1 (IL-2 20 ng/mL) [17]	1.64
KAI3 (IL-2 2.5 ng/mL) [18]	2.98
KHYG-1 (IL-2 2.5 ng/mL) [19]	5.21
NK-92 (IL-2 2.5 ng/mL) [20]	4.04
NK-YS (IL-2 2.5 ng/mL) [21]	5.79
NKL (IL-2 2.5 ng/mL) [22]	5
SNK-6 (IL-2 2.5 ng/mL) [23]	2.27
YT (IL-2 2.5 ng/mL) [24]	3.73
[15]	5.37
[25]	1.19
[26]	4.1
[27]	0
[28]	0.32

Cc1c(Cn2c(C)nc3c(C(=O)O)cc(N4CCOCC4)cc32)cccc1C(F)(F)F (max concentration tested 10000 nM)
percent inhibition of viability [%]
Conditions	1 nM	10 nM	100 nM	1000 nM	10000 nM
DERL-7 (IL-2 2.5 ng/mL) [2]	3.53	-4.49	1.36	12.1	13.4
IMC-1 (IL-2 20 ng/mL) [3]	-6.71	-4.25	-1.73	-3.09	11.3
KAI3 (IL-2 2.5 ng/mL) [4]	8.08	9.48	9.01	12.5	37.9
KHYG-1 (IL-2 2.5 ng/mL) [5]	-2.27	6.11	14.1	8.86	38.2
NK-92 (IL-2 2.5 ng/mL) [6]	-7.97	-2.84	22	7.51	49
NK-YS (IL-2 2.5 ng/mL) [7]	-2.91	-0.33	7.31	5.6	15.8
NKL (IL-2 2.5 ng/mL) [8]	-15.7	-8.49	-1.03	1.51	14.1
SNK-6 (IL-2 2.5 ng/mL) [9]	-7.05	-21.9	3.71	-6.21	13.1
YT (IL-2 2.5 ng/mL) [10]	1	6.27	9.12	14.3	16.5
[1]	2.47	-0.33	2.82	11.7	17.4
[11]	-6.21	1.65	-5.56	-4.02	4.77
[12]	-5.25	4.41	3.22	-19.1	-11.9
[13]	-11.1	-13.9	-1.99	1.31	13.6
[14]	-1.55	0.84	4.49	-0.45	11.4

Conditions	drug sensitivity score
DERL-7 (IL-2 2.5 ng/mL) [16]	0.85
IMC-1 (IL-2 20 ng/mL) [17]	0
KAI3 (IL-2 2.5 ng/mL) [18]	3.6
KHYG-1 (IL-2 2.5 ng/mL) [19]	3.2
NK-92 (IL-2 2.5 ng/mL) [20]	3.86
NK-YS (IL-2 2.5 ng/mL) [21]	0.34
NKL (IL-2 2.5 ng/mL) [22]	0.29
SNK-6 (IL-2 2.5 ng/mL) [23]	0.03
YT (IL-2 2.5 ng/mL) [24]	1.67
[15]	1.17
[25]	0
[26]	0
[27]	0.23
[28]	0.01
